Results on 3 compounds are retold here after patent US20160237402A1, “Methods and Compositions for Ex Vivo Generation of Developmentally Competent Eggs from Germ Line Cells Using Autologous Cell Systems” (NORTHEASTERN UNIVERSITY, priority 2013, published 2016).

The test system of assay [1] is FACS-purified Fox12-DsRed-positive cells. The assay is described as follows: Estradiol and progesterone production by FACS-purified Fox12-DsRed-positive cells (ELISA of culture medium). The format is cell-based, mouse. The following applies: FSH 100 ng/ml or 8-br-cAMP 1 mM; cultured 24, 48 or 72 hours; versus vehicle (PBS) control; cells isolated on day 12 of ESC differentiation. The protocol: FIG. 5A is a graph showing estradiol production by FACS-purified Fox12-DsRed positive cells (2×10^3 cells per well), which spontaneously differentiated in embryonic stem cell cultures, maintained in culture for up to 3 days (FSH, 100 ng/ml; 8-br-cAMP, 1 mM). Data are the mean±SEM of 3 independent cultures (*, P<0.05 versus vehicle control).
FIG. 5B is a graph showing progesterone production by FACS-purified Fox12-DsRed positive cells (2×10^3 cells per well), which spontaneously differentiated in embryonic stem cell cultures, maintained in culture for up to 3 days (FSH, 100 ng/ml; 8-br-cAMP, 1 mM). Data are the mean±SEM of 3 independent cultures (*, P<0.05 versus vehicle control).
To identify and track ovarian somatic cells in differentiating ESC cultures, the expression of the early granulosa cell marker, Fox12, in differentiating ESC cultures was mapped. […] A 739 by region of the Fox12 gene promoter was identified using Genome Vista. The region was isolated from mouse genomic DNA and cloned into the pDsRed2-1 vector (Clontech, Mountain View, Calif.,) or the pLenti6 lentiviral construct containing the complete open reading frame of DsRed (Gateway Lentiviral System; Invitrogen), thus creating a DsRed expression vector under control of the Fox12 gene promoter.
Promoter activity and specificity were verified using mouse granulosa cells as a positive control and 293 cells (Invitrogen) as a negative control. To verify the Fox12 gene promoter-driven DsRed expression, undifferentiated TgOG2 ESCs were stably transfected with the Fox12-pDsRed2-1 construct via electroporation, followed by clonal selection and expansion. Alternatively, ESCs were virally transduced following initiation of differentiation using viral supernatant produced by 293 cells transfected with the Fox12-DsRed lentiviral construct (pLenti6-Fox12-DsRed). Cells were analyzed for expression of DsRed by fluorescence microscopy and isolated by fluorescence-activated cell sorting (FACS).
For FACS, differentiating ESCs were removed from the plate by either 0.25% trypsin-EDTA (prior to day 10 of differentiation) or manually scraped. […] The cells were analyzed and sorted using a FACS Aria flow cytometer (BD Biosciences, San Jose, Calif.).
Estradiol and progesterone concentrations were measured in culture medium from FACS-purified Fox12-DsRed-positive cells that had been re-plated and cultured for 24, 48 or 72 hours in the presence of PBS (vehicle), 100 ng/ml follicle stimulating hormone (FSH; NIDDK, NIH, Bethesda, Md.) or 1 mM 8-bromoadenosine-3′,5′-cyclic monophosphate (8-br-cAMP; Sigma-Aldrich). […]

Assay [2] relates to OSC differentiation into oocytes. The assay is described as follows: GCV treatment of transgenic mice with Stra8 promoter-driven HSVtk; counts of oocyte-containing primordial follicles. The format is in vivo. As for the experimental part: FIGS. 2A-D are graphs that show the OSCs of aged mice lose the ability to support primordial follicle formation. Transgenic mice, ranging from 2-11 months, having an inducible “suicide gene” (herpes simplex virus thymidine kinase or HSVtk) that specifically disrupts OSC differentiation into oocytes only in the presence of the HSVtk pro-drug ganciclovir (GCV), were tested for their ability to lose and regain their oocyte reserves after activation and deactivation of the suicide gene, respectively.
Animals and treatments. Transgenic pStra8-Gfp mice with expression of green fluorescent protein (GFP) driven by the promoter of the meiosis commitment gene, stimulated by retinoic acid gene 8 (Stra8;) mice were generated as described in Imudia et al., Fertil Steril, 100:1451-1458 (2013). Transgenic mice with herpes simplex virus thymidine kinase (HSVtk) expression driven by the Stra8 promoter were generated by replacing the GFP-coding sequence in the pStra8-Gfp construct with cDNA encoding GFP-fused HSVtk and the constructs were then sent to Genoway for generation of the transgenic lines, as described (Imudia et al., Fertil Steril, 100:1451-1458 (2013). For comparative studies, wild type and transgenic siblings from breeding colonies were used in parallel to rule out any potential effect of background strain on the outcomes. For treatments, the HSVtk pro-drug, ganciclovir (GCV; Roche), was dissolved in sterile water at 10 mg/ml, and then diluted in sterile 1×-concentrated phosphate-buffered saline (PBS) for daily dosing (10 mg/kg for 21 days, intraperitoneal injection). Control animals were injected with vehicle (PBS) in parallel.
Oocyte counts. Prior to the start of PBS or GCV injections, 21 days after daily dosing with GCV, and 21 days after ceasing GCV treatment, ovaries were collected from mice at the indicated ages, fixed, embedded in paraffin, and serially sectioned for histomorphometry-based quantification of the number of oocyte-containing primordial follicles, as detailed (Jones and Krohn, J Endocrinol, 21:469-495 (1961); Johnson et al., Nature, 428:145-150 (2004); and Wang and Tilly, Cell Cycle, 9:339-349 (2010)). All samples were assessed in a completely blinded fashion, and reproducibility was independently confirmed with randomly selected slides by a second observer. In all cases, variation in counts between observers was less than 7%.

Turning to `Nc1ncnc2c1nc(Br)n2[C@@H]1O[C@@H]2COP(=O)(O)O[C@H]2[C@H]1O` [8-br-cAMP, 8-bromoadenosine-3′,5′-cyclic monophosphate], in assay [1], the estradiol production result is given as “significant increase” and the progesterone production entry is “significantly enhance”.
In the case of `Nc1nc(O)c2ncn(COC(CO)CO)c2n1` [GCV, ganciclovir], the “response of primordial follicle pool to GCV treatment” value in assay [2] (advanced aged mice, 10-11 months of age, 10 mg/kg daily for 21 days, intraperitoneal) was “completely refractory”. Besides, the “primordial follicle reserve after GCV treatment” value is “reduced primordial follicle reserve” in assay [2] (middle-age adult mice, 5-6 months of age, 10 mg/kg daily for 21 days, intraperitoneal) and “reduced primordial follicle reserve” in assay [2] (young adult mice, 2-3 months of age, 10 mg/kg daily for 21 days, intraperitoneal). Moreover, in assay [2] (young adult (2-3 months) and middle-age (5-6 months) mice), the “time for primordial follicle pool to regenerate back to control (PBS, vehicle) levels after ceasing GCV treatment” value is not above 21 days.
On to follicle stimulating hormone [FSH], for which, in assay [1], the estradiol production entry is given as “significant increase” and the progesterone production entry is on record as “only 8-br-cAMP was able to significantly enhance”.
